Experimental findings from article PMC11257039, “VCP activator reverses nuclear proteostasis defects and enhances TDP-43 aggregate clearance in multisystem proteinopathy models” (The Journal of Clinical Investigation, 2024) are described below.

“And” between values parts separate entries of the source, which are not always exact repeats. Equal entries are not always repeated.

One assay concerns luciferase. Nature of the assay: Luciferase counter assay: Kinase-Glo with 62.5 μM ATP without recombinant VCP. In kind it is biochemical. Particulars: for measured ATP consumed (nmol) without VCP: replicate values. A digest of the protocol: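 Counter-screen with no recombinant VCP: 62.5 μM ATP and rising compound concentrations in ATPase buffer (25 mM HEPES pH 7.5, 100 mM NaCl, 10 mM MgCl2, 2% DMSO), 1 h at 25°C. Remaining ATP was read as Kinase-Glo luminescence after 20 min at room temperature; n=3, linear mixed effects model.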
(Kinase-Glo reads ATP consumption through a luciferase reaction.)

The target in another assay is T1, A232E VCP (Mus musculus, UniProt Q01853, A232E).
T1 construct: in the full-length recombinant VCP; His (N); made in house; host or cells: Escherichia coli BL21-CodonPlus (DE3)-RIL
T1 sequence (Q01853 whole entry A232E): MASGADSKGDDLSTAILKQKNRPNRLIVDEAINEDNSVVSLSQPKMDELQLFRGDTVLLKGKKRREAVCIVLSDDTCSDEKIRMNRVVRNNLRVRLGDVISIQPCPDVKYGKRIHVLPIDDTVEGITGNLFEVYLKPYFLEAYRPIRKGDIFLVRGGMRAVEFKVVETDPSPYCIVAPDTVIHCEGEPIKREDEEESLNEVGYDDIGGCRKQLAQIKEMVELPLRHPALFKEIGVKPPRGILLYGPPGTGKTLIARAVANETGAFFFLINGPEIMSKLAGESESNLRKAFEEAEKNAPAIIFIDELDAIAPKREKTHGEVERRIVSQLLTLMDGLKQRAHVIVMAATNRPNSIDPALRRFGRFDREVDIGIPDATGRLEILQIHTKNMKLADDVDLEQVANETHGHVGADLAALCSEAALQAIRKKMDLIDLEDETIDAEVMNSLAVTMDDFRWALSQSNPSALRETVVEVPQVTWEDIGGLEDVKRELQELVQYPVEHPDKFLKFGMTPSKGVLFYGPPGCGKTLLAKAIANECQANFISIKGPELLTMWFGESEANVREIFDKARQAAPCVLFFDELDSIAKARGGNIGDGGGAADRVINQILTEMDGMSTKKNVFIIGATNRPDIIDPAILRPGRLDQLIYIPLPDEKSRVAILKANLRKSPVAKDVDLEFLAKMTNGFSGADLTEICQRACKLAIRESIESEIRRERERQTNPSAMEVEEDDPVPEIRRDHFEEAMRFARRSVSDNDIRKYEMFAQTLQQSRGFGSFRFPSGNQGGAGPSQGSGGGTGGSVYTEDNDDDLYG
The experiment in a line: MESG-PNP ATPase assay, recombinant A232E VCP. In kind it is biochemical. The method, boiled down: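 Phosphate release (MESG-PNP, A360) from 50 nM recombinant mouse VCP mutant, with 25 μM compound versus 2% DMSO, at 1mM ATP. Read >15 min at 25°C, quantified against a phosphate standard curve; initial velocity from linear fit of the linear portion.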

With `COCCNC(=O)NC(=O)COC(=O)c1cc([N+](=O)[O-])ccc1Sc1nc(C)cs1` [UP109], in the assay with luciferase (62.5 μM ATP, increasing concentrations of compound), the “luciferase activity (measured ATP without VCP)” value was “did not inhibit luciferase activity”. Also, the “measured ATP consumed (nmol) without VCP” value in the assay on luciferase (compound 6.25 μM) is 3.224 nmol and 3.481 nmol and 3.557 nmol and 3.618 nmol and 3.348 nmol and 3.306 nmol and 3.280 nmol and 3.059 nmol and 3.211 nmol and 3.590 nmol and 3.249 nmol and 3.229 nmol; in the assay on luciferase (compound 12.5 μM) it was 3.275 nmol and 3.593 nmol and 3.611 nmol and 3.469 nmol and 3.221 nmol and 3.387 nmol and 3.414 nmol and 3.086 nmol and 3.141 nmol and 3.174 nmol and 3.231 nmol and 3.422 nmol; in the assay on luciferase (compound 25 μM) it was 3.285 nmol and 3.476 nmol and 3.450 nmol and 3.355 nmol and 3.220 nmol and 3.354 nmol and 3.314 nmol and 3.030 nmol and 3.217 nmol and 3.388 nmol and 3.578 nmol and 3.396 nmol; in the assay with luciferase (compound 50 μM) it was 3.335 nmol and 3.348 nmol and 3.307 nmol and 3.386 nmol and 3.228 nmol and 2.949 nmol and 3.054 nmol and 3.211 nmol and 3.367 nmol and 3.287 nmol and 3.322 nmol; with luciferase (compound 100 μM), 3.258 nmol and 3.303 nmol and 3.325 nmol and 3.212 nmol and 3.287 nmol and 3.191 nmol and 3.396 nmol and 3.257 nmol and 3.381 nmol and 3.296 nmol; in the assay on luciferase (compound 200 μM) it was 3.338 nmol and 3.532 nmol and 3.360 nmol and 3.185 nmol and 3.242 nmol and 2.772 nmol and 3.166 nmol and 3.261 nmol and 3.507 nmol and 3.171 nmol and 3.672 nmol. In addition, the “ATPase activity of A232E VCP” value on A232E VCP (25 μM compound, 1 mM ATP, 50 nM VCP) is “increases ATPase activity”. For the same compound, the “ATPase activity, nmol Pi / nmol VCP / s” value on A232E VCP (VCP Mutation A232E, replicate values) is 1.176 nmol Pi / nmol VCP / s and 1.282 nmol Pi / nmol VCP / s and 1.456 nmol Pi / nmol VCP / s.
